Source: patent publication US5750362A, “Methods for identifying substances with a potential herbicidal or growth-regulating action by means of plant transporter proteins, the use of the transporter proteins, and substances with a herbicidal and growth-regulating action” (BASF Aktiengesellschaft, priority 1993, dated 1998)
Like-named read-outs stand apart in the source and are kept apart here.

What was measured:
[1] = target: T1, amino-acid transporter AAP2 (Arabidopsis thaliana, UniProt Q38967); test: Uptake of radiolabeled L-proline by yeast mutant 22457d-AAP2 expressing the plant amino-acid transporter; format: cell-based; settings: read-out: Activity relative to control [%]
T1 construct: expressed in transfected cells; host or cells: Saccharomyces cerevisiae mutant 22574d (also printed 22457d)
T1 sequence (Q38967 1-493): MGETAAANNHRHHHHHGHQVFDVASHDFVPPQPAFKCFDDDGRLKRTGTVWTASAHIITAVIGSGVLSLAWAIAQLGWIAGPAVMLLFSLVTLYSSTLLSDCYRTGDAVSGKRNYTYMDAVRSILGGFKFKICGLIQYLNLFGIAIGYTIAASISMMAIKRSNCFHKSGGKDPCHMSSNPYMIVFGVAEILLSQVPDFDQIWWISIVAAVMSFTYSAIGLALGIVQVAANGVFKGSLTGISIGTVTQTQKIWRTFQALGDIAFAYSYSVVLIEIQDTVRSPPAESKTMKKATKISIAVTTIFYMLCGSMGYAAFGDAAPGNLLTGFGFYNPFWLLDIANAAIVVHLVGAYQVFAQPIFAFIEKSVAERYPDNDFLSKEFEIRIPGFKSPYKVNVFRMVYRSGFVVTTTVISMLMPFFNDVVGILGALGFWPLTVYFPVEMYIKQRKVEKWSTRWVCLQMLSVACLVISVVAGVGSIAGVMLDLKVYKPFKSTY
Method: Transporter investigations are carried out on the yeast mutant 22574d (Jauniaux & Grenson, Eur. J. Biochem. 190: 39-44, 1990), which harbors a mutation in the gene for amino-acid permease, and on the yeast mutant JT 16 (Tanaka and Fink, Gene 38: 205-214, 1985) which is incapable of histidine uptake, for identification of inhibitors of plant amino-acid transporters. These mutants are transformed with cDNA sequences which code for plant amino-acid transporters and lead to expression of functional transporters in the yeast cells. The cDNA sequences are cDNA sequences which code for the amino-acid transporters AAP1 and AAP2 from Arabidopsis thaliana (Frommer et al., 1993, Proc. Natl. Acad. Sci. USA 90: 5944-5948; Kwart et al., 1993, Plant J. 4:993-1002). For the measurements, cells of these mutants are cultured in minimal medium (NAAG+5 mmol/l proline) at 28° C. and harvested in the logarithmic phase (OD600 =0.6). The cells are spun down in a centrifuge at 4000 rpm and 4 degrees Celsius for 10 minutes and washed 2× with AUB buffer (modified AAB buffer, Ljungdahl et al.). The cell concentration is adjusted to an OD600 of 25 in AUB buffer.
100 μl portions of the cell suspension are mixed with 100 μl of a 1 mmol/l L-proline solution (18.5 kBq of L-[14C]-proline) and various concentrations of the appropriate substance to be investigated. After 20, 60, 120 and 180 seconds, a 50 μl aliquot is removed, diluted in 4 ml -of ice-cold AUB buffer and filtered through glass fever [sic] filter. In order to remove nonspecifically bound L-[14C]-proline, the cells are washed 2× with 4 ml of ice-cold water each time. The radioactivity retained on the glass filter is then measured in a liquid scintillation counter. The radioactivity reflects the amount of radiolabeled proline taken up by the cells. Uptake of radiolabeled proline without addition of a potential inhibitor is determined as one control. Cells of each of the mutants 22574d and JY 16 which have not been transformed with cDNA sequences coding for plant amino-acid transporters are used as further control. Results of measurements of this type on the mutants 22457d-AAP2 which expresses the amino-acid transporter AAP2 from Arabisopsis [sic] thaliana are shown in the following table.
For the investigations, yeast cells of the strain 22457d were transformed with a cDNA sequence which codes for the amino-acid transporter AAP2, and the uptake of radiolabeled proline in the presence of various substances was determined. The various substances tested, their concentration, and the activity of the transporter, shown as percentage activity of the control with which no potential inhibitors were added, are indicated.

[2] = target: T2, sucrose transporter S21 (SoSUT1) (Spinacia oleracea, UniProt Q03411); test: [14C]-sucrose uptake by yeast strain SUSY7 expressing the spinach sucrose transporter; format: cell-based; settings: [14C]-sucrose uptake, pH 3.8; tested substance 0.1 mM
T2 construct: expressed in transfected cells; host or cells: Saccharomyces cerevisiae SUSY7
T2 sequence (Q03411 1-525): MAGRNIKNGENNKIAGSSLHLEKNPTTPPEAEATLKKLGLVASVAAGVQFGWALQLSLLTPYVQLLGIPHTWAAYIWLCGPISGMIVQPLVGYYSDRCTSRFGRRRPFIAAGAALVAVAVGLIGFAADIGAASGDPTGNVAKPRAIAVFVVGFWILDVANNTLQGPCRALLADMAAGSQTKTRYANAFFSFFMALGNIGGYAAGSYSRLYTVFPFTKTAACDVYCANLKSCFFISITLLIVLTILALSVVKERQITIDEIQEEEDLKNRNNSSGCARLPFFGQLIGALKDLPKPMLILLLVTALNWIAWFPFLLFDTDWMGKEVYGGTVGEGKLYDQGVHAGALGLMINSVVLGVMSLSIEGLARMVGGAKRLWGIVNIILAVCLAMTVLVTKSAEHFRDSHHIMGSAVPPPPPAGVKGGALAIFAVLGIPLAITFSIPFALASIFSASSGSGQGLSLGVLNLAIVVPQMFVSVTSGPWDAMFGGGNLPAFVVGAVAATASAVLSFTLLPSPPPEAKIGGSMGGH
Method: Yeast cells of the strain SUSY7 (Riesmeier et al., 1992, EMBO J. 11: 4705-4713) are used to identify substances which have an inhibitory effect on sucrose transporters from spinach. Cells of this strain are transformed with a cDNA sequence which codes for the sucrose transporter S21 (SoSUT1) from spinach and which ensures expression of a functional transporter in the cells. The yeast cells are cultured in minimal medium (SD+2% (w/v) sucrose, pH 3.8) at 28° C. and harvested in the logarithmic phase (OD600 =0.6). The cells are spun down at 4000 rpm for 10 minutes and washed twice with SD medium. A cell concentration of c=50 g/l in SD medium is adjusted according to the wet weight of the cells, and 200 μl aliquot fractions are taken. Before the actual reaction, the cells are incubated in 10 mM glucose for 5 min and adjusted to pH 3.8 with MES buffer. The reaction is started by adding 200 μl of a 0.2 mmol/l [14C]-sucrose solution (3 mCi/mmol) in SD medium (pH 3.8). After 20, 60, 120, 180 and 240 seconds, 70 μl portions of the suspension are removed and pipetted into 4 ml of ice-cold water in order to stop the reaction. The cells are filtered off on glass fiber filters and washed twice with ice-cold water. The radioactivity on the filters is subsequently determined in a liquid scintillation counter. The substances to be tested are added 30 seconds before addition of the sucrose. The uptake of radiolabeled sucrose without addition of a potential inhibitor is determined as one control. Cells of the strain SUSY7 which are not transformed with cDNA sequences coding for a sucrose transporter from spinach are employed as further control.
The various tested substances, their concentration and the activity of the transporter, shown as percentage activity of the control in which no potential inhibitors were added, are indicated. Substances which specifically show an inhibitory effect on the sucrose transporter S21 (SoSUT1), are tested for their herbicidal and growth-regulating effect on whole plants.

[3] = target: T3, sucrose transporter P62 (StSUT1) (Solanum tuberosum, UniProt Q43653); test: [14C]-sucrose uptake by yeast strain SUSY-7-P62 (StSUT1) expressing the potato sucrose transporter; format: cell-based
T3 construct: whole-cell [14C]-sucrose uptake; no tag or borders given
T3 sequence (Q43653 1-516): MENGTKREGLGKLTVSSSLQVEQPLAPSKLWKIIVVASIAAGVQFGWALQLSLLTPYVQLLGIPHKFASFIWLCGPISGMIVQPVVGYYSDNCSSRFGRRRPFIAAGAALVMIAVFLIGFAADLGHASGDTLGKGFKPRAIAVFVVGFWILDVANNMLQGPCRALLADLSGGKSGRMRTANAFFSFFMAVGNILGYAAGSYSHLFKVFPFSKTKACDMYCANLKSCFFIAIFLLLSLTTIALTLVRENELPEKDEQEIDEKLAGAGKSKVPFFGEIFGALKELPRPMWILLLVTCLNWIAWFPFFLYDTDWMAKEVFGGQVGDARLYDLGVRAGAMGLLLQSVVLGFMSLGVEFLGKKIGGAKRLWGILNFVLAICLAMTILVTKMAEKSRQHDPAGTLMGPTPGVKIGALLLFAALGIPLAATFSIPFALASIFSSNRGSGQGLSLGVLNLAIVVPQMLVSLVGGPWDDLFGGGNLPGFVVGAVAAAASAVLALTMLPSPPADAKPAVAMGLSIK
Text: Yeast cells of the strain SUSY7 (Riesmeier et al., 1992, EMBO J. 11: 4705-4713) are used to identify substances which have an inhibitory effect on sucrose transporters from potato. Cells of this strain are transformed with a cDNA sequence which codes for the sucrose transporter P62 (StSUT1) from potato (WO 94/00574, Riesmeier et al., 1993, Plant Cell 5:1591-1598) and which ensures expression of a functional transporter in the cells. The resulting yeast strain was called SUSY-7-P62 (StSUT1). The yeast cells are cultured in minimal medium (SD +2% (w/v) sucrose, pH 3.8) at 28° C. and harvested in the logarithmic phase (OD600 =0.6). The cells are spun down at 4000 rpm for 10 minutes and washed twice with SD medium. A cell concentration of c=50 g/l in SD medium is adjusted according to the wet weight of the cells, and 200 Al aliquot fractions are taken. Before the actual reaction, the cells are incubated in 10 mM glucose for 5 min and adjusted to pH 3.8 with MES buffer. The reaction is started by adding 200 Al of a 0.2 mmol/l [14C]-sucrose solution (3 mCi/mmol) in SD medium (pH 3.8). After 20, 60, 120, 180 and 240 seconds, 70 μl portions of the suspension are removed and pipetted into 4 ml of ice-cold water in order to stop the reaction. The cells are filtered off on glass fiber filters and washed twice with ice-cold water. The radioactivity on the filters is subsequently determined in a liquid scintillation counter. The substances to be tested are added 30 seconds before addition of the sucrose. The uptake of radiolabeled sucrose without addition of a potential inhibitor is determined as one control. Cells of the strain SUSY7 which are not transformed with cDNA sequences coding for a sucrose transporter from potato are employed as further control.
The various tested substances, their concentration and the activity of the transporter, shown as percentage activity of the control in which no potential inhibitors were added, are indicated.

[4] = system: plants; test: Herbicidal activity on plants; format: in vivo; settings: whole plants; result in words
[5] = system: sucrose transporters; settings: Bush, 1989, Plant Physiol. 89: 1318-1323; result in words; cited from earlier work
[6] = system: sucrose transporter P62 (StSUT1); test: Activation of sucrose transport by preincubation of the yeast cells; format: cell-based, Solanum tuberosum
Method: The transport of sucrose by the sucrose transporter P62 (StSUT1) from Solanum tuberosum can be increased by previous energizing of the yeast cells by incubation in glucose, stachyose and adenine. The same increase in transport activity is achieved by reducing the pH to pH 3.8 in the measurement. The measurement of transport to determine the activation takes place as described in Example 3 but the cells are incubated before the actual measurement not in 10 mM glucose for 5 min but in solutions of various concentrations of glucose, stachyose and adenine for 5 min. Yeast cells which are not incubated in solutions of these substances before the measurement act as control. The following table indicates the extent of activation of sucrose transport with various concentrations of glucose, stachyose and adenine compared with the control.

[7] = target: T4, ammonium transporter AMT1 (Arabidopsis thaliana, UniProt P54144); test: cell-based
T4 construct: expressed in transfected cells; host or cells: Saccharomyces cerevisiae 26972c (mutations in MEP1 and MEP2)
T4 sequence (P54144 1-501): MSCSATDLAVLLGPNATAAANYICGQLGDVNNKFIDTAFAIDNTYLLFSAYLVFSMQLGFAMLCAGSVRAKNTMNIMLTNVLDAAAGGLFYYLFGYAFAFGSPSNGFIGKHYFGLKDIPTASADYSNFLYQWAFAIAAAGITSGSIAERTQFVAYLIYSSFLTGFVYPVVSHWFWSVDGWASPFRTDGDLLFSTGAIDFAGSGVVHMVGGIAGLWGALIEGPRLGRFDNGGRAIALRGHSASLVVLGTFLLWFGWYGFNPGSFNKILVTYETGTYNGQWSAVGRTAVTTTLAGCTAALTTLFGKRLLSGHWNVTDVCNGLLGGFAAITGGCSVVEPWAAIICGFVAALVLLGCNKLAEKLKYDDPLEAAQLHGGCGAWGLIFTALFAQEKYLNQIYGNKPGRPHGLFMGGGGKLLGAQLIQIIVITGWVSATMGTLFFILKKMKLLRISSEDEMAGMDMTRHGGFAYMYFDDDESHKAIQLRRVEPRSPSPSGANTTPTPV
Method: The measurements of transport identify inhibitors of plant ammonium transporters are carried out with the structural analog methylamine because radiolabeled ammonium is not commercially obtainable.
The yeast cells are transformed by standard methods with cDNA sequences which code for an ammonium transporter from plants and which permit expression of a functional transporter in the yeast cells. […] The cells are cultured in NAAG-medium (2% glucose, 1.7 g/l yeast nitrogen-base w/o amino acids and ammonium sulfate (Difco), supplemented with 500 μg/ml L-proline) at 28 degrees Celsius, and harvested in the logarithmic phase (OD660.=0.6). The cells are then spun down in a centrifuge at 4000 rpm and 4 degrees Celsius for 10 minutes, washed twice with 20 mM sodium phosphate buffer, pH 7, and taken up in the same buffer to an 0D660 of 8. 200 μl aliquot fractions of the cell suspension are taken. 5 minutes before the actual measurement,the yeasts are activated by addition of 100 mM glucose and incubated at 30 degrees Celsius. To start the reaction, 100 μl of the cell suspension are added to 100 µl of reaction mixture (20 mM Na phosphate buffer, pH7; 18.5 kBq of [^14 C]-methylamine (NEN); 100 M methylamine; substance to be tested depending on the experiment (see FIG. 4)). In each case 10, 60, 120 and 180 seconds after starting the reaction, 50 μl aliquots are taken, added to 4 ml of ice-cold 5 mM methylamine solution and filtered on glass fibre filters. After the filters have been washed with a further 8 ml of a methylamine solution, the radioactivity on the filters is subsequently determined in a liquid scintillation counter. Inhibitors are added 60 seconds before adding the glucose.
The uptake of radiolabeled methylamine without addition of a potential inhibitor is determined as one control.

O=C(O)[C@H]1CCCN1 [D-Proline]
remaining activity at 10000 µM [1]: 90%

O=S(=O)(O)c1cc[c]([Hg][Cl])cc1 [PCMBS]
Activity relative to the control [%] [2]: 21%
Activity relative to the control [%] ([3]; [14C]-sucrose uptake, pH 3.8, tested substance 0.1 mM): 20%
Herbicidal activity on plants [4]: herbicidal activity on plants
Inhibition of sucrose transport [5]: highly effective transport inhibitors

O=C(O)C1CCN1 (stereo not shown) [Azetidine-2-carboxylate]
remaining activity at 10000 µM ([1]; L-[14C]-proline uptake, tested substance 10 mM): 62%

OC[C@H]1OC(O)[C@H](O)[C@@H](O)[C@@H]1O (stereo partly shown) [Glucose]
Activity relative to the control [%] ([6]; sucrose transport after 5 min preincubation with the substance at c1 [0.2 mol/l], 200000 µM): 89 ± 5%
Activity relative to the control [%] ([6]; sucrose transport after 5 min preincubation with the substance at c2 [2 mmol/l]): 90 ± 3%

CN [Methylamine]
remaining activity at 500 µM ([7]; pH 7, [14C]-methylamine uptake, tested substance 500 μM, read-out: Activity relative to the control [%]): 40%
Herbicidal activity on plants [4]: herbicidal activity on plants

O=[N+]([O-])c1ccc(O)c([N+](=O)[O-])c1 [DNP]
remaining activity at 100 µM [1]: 7.6 ± 1.6%
remaining activity at 100 µM ([3]; pH 3.8, read-out: Activity relative to the control [%]): 3%
remaining activity at 100 µM ([7]; pH 7, read-out: Activity relative to the control [%]): 18%
